Laboratory results as given in ChEMBL document CHEMBL2390907, “Juglone, isolated from Juglans mandshurica Maxim, induces apoptosis via down-regulation of AR expression in human prostate cancer LNCaP cells” (Bioorg Med Chem Lett, 2013).
Active and inactive are the calls of the source. No cut-off for these calls is given here.

Tests used:
LNCaP [1] = assay: Antiproliferative activity against human LNCAP cells after 24 hrs by MTT assay; format: functional, cell-based
LNCaP [2] = assay: Induction of apoptosis in human LNCAP cells assessed as decrease of DHT-induced prostate-specific antigen mRNA expression at 15 uM treated 2 hrs before DHT challenge measured after 24 hrs by RT-PCR analysis; format: functional, cell-based
LNCaP [3] = assay: Induction of apoptosis in human LNCAP cells assessed as membrane blebbing at 5 to 15 uM after 24 hrs using Hoechst 33342 staining by fluorescence microscopic analysis; format: functional, cell-based
LNCaP [4] = assay: Induction of apoptosis in human LNCAP cells assessed as cleavage of precursor of caspase-3 and 9 after 24 hrs by Western blot analysis; format: functional, cell-based
LNCaP [5] = assay: Induction of apoptosis in human LNCAP cells assessed as increase of annexin V-FITC/PI staining positive cells after 24 hrs by flow cytometry; format: functional, cell-based
LNCaP [6] = assay: Induction of apoptosis in human LNCAP cells assessed as cell shrinkage at 5 to 15 uM after 24 hrs using Hoechst 33342 staining by fluorescence microscopic analysis; format: functional, cell-based
LNCaP [7] = assay: Induction of apoptosis in human LNCAP cells assessed as decrease of androgen receptor protein expression after 24 hrs by Western blot analysis; format: functional, cell-based
LNCaP [8] = assay: Induction of apoptosis in human LNCAP cells assessed as decrease of androgen receptor protein expression at 5 uM after 24 hrs by Western blot analysis; format: functional, cell-based
LNCaP [9] = assay: Induction of apoptosis in human LNCAP cells assessed as nuclear condensation at 5 to 15 uM after 24 hrs using Hoechst 33342 staining by fluorescence microscopic analysis; format: functional, cell-based
LNCaP [10] = assay: Induction of apoptosis in human LNCAP cells assessed as decrease of DHT-induced androgen receptor mRNA expression at 15 uM treated 2 hrs before DHT challenge measured after 24 hrs by RT-PCR analysis; format: functional, cell-based
LNCaP [11] = assay: Induction of apoptosis in human LNCAP cells assessed as activation of caspase-3 and 9 at 15 uM after 24 hrs by Western blot analysis relative to control; format: functional
LNCaP [12] = assay: Induction of apoptosis in human LNCAP cells assessed as decrease of prostate-specific antigen protein expression after 24 hrs by Western blot analysis; format: functional, cell-based
LNCaP [13] = assay: Induction of apoptosis in human LNCAP cells assessed as decrease of prostate-specific antigen protein expression at 5 uM after 24 hrs by Western blot analysis; format: functional, cell-based
LNCaP [14] = assay: Induction of apoptosis in human LNCAP cells assessed as decrease of mitochondria membrane potential after 24 hrs using rhodamine 123 dye by flow cytometry; format: functional, cell-based

## O=C1C=CC(=O)c2c(O)cccc21 [JUGLONE]
LNCaP [1]
  Activity: Dose-dependent effect
  IC50: 13.8 µM
LNCaP [2]
  Activity: Active
LNCaP [3]
  Activity: Active
LNCaP [4]
  Activity: Dose-dependent effect
LNCaP [5]
  Activity: Dose-dependent effect
LNCaP [6]
  Activity: Active
LNCaP [7]
  Activity: Dose-dependent effect
LNCaP [8]
  Activity: inactive
LNCaP [9]
  Activity: Active
LNCaP [10]
  Activity: Active
LNCaP [11]
  fold change (FC): >2.5
LNCaP [12]
  Activity: Dose-dependent effect
LNCaP [13]
  Activity: inactive
LNCaP [14]
  Activity: Dose-dependent effect
